Laboratory results taken from ChEMBL document CHEMBL3390845, “Development of second generation amidinohydrazones, thio- and semicarbazones as Trypanosoma cruzi-inhibitors bearing benzofuroxan and benzimidazole 1,3-dioxide core scaffolds” (Medchemcomm, 2010).

What was measured:
[1] = Hemolytic activity in human RBC assessed as hemoglobin release after 24 hrs by spectrophotometry; type: ADME, cell-based, Erythrocyte; settings: for HC50 at 24 h: human red blood cells (RBC), read-out: ID50; for ID50: erythrocyte, 24 h
Trypanosoma cruzi = assay: Antitrypanosomal activity against epimastigotes of Trypanosoma cruzi Tulahuen 2 assessed as parasite growth inhibition after 5 days; type: functional; settings: Tulahuen 2, 120 h, read-out: ID50 (the source's name)
[2] = biological target: Cruzipain (Trypanosoma cruzi) (UniProt P25779); assay: Inhibition of Trypanosoma cruzi Cruzipain using Z-Phe-Arg-AMC as substrate at 100 uM at pH 7.3 measured for 10 mins by spectrofluorimetric analysis relative to control
[3] = biological target: Cruzipain (Trypanosoma cruzi) (UniProt P25779); assay: Inhibition of Trypanosoma cruzi Cruzipain using Z-Phe-Arg-AMC as substrate measured for 10 mins by spectrofluorimetric analysis relative to control
[4] = Cytotoxicity in mouse J774 cells assessed as cell viability after 48 hrs by MTT assay; type: cell-based; settings: read-out: ID50
[5] = biological target: Cruzipain (Trypanosoma cruzi) (UniProt P25779); assay: Inhibition of Trypanosoma cruzi Cruzipain using Z-Phe-Arg-AMC as substrate at 100 uM at pH 5.3 measured for 10 mins by spectrofluorimetric analysis relative to control
[6] = biological target: Cruzipain (Trypanosoma cruzi) (UniProt P25779); assay: Inhibition of Trypanosoma cruzi Cruzipain using Z-Phe-Arg-AMC as substrate at 100 uM at pH 7.3 measured for 10 mins by spectrofluorimetric analysis relative to control in presence of Triton X-100
[7] = Selectivity index, ratio of ID50 for mouse J774 cells to ID50 for epimastigotes of Trypanosoma cruzi Tulahuen 2; type: toxicity, cell-based; settings: read-out: Selectivity Index
[8] = Selectivity index, ratio of ID50 for human RBC to ID50 for epimastigotes of Trypanosoma cruzi Tulahuen 2

Chain of Cruzipain (Trypanosoma cruzi) (P25779 123-467 limits assumed): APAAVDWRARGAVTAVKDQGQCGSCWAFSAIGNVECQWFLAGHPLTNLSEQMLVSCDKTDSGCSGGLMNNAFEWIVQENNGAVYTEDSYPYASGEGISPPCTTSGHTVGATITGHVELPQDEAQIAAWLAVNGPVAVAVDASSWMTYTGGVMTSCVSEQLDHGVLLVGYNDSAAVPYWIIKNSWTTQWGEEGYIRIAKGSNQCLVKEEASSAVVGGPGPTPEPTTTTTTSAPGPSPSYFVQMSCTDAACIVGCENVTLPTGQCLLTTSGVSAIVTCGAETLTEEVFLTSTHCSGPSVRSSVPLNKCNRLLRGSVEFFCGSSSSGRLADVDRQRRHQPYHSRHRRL

Structure (SMILES)	HC50 at 24 h [1]	IC50 (Trypanosoma cruzi)	inhibition [2]	ID50 [3]	CC50 at 48 h [4]	ID50 [1]	inhibition [5]	inhibition [6]	selectivity ratio [7]	Selectivity Index [8]
CC1(C)[N+]([O-])=c2ccc(COc3ccccc3/C=N\NC(N)=S)cc2=[N+]1[O-]	> 200 µM	14 µM	35%	> 100 µM						
CC1(C)[N+]([O-])=c2ccc(COc3cccc(C=O)c3)cc2=[N+]1[O-]	< 50 µM	> 25 µM	45%	100 µM						
[O-][n+]1onc2ccc(/C=N/N=C/c3ccccc3O)cc21		> 25 µM		68 µM						
[O-][n+]1onc2ccc(/C=N/N=C/c3cc(Br)ccc3O)cc21		25 µM		73 µM						
CC1(C)[N+]([O-])=c2ccc(COc3ccccc3/C=N\NC(=S)Nc3ccccc3)cc2=[N+]1[O-]	66 µM	7.7 µM	0%	> 100 µM	< 100 µM					
CC1(C)[N+]([O-])=c2ccc(COc3cccc(/C=N/NC(N)=S)c3)cc2=[N+]1[O-]	141 µM	24 µM	95%	64 µM						
C/C(=N/NC(=N)N)c1ccccc1OCc1ccc2no[n+]([O-])c2c1	> 200 µM	16.6 µM	21%	> 100 µM						
CC1(C)[N+]([O-])=c2ccc(COc3ccccc3/C=N\NC(=N)N)cc2=[N+]1[O-]	114 µM	> 25 µM	2.5%	> 100 µM						
CC1(C)[N+]([O-])=c2ccc(COc3ccc(/C=N/NC(N)=O)cc3)cc2=[N+]1[O-]	> 200 µM	> 25 µM	0%	> 100 µM						
C=CCNC(=S)N/N=C/c1cccc(OCc2ccc3no[n+]([O-])c3c2)c1		13 µM	100%	55 µM		ND(Insoluble)	79%	90%		
[O-][n+]1onc2ccc(COc3ccccc3/C=N\NC(=S)Nc3ccccc3)cc21	> 200 µM	3.6 µM	0%	> 100 µM	> 400 µM				> 111	> 55.6
CC1(C)[N+]([O-])=c2ccc(COc3ccc(/C=N/NC(=S)Nc4ccccc4)cc3)cc2=[N+]1[O-]	< 50 µM	> 25 µM	72%	85 µM						
N=C(N)N/N=C/c1cccc(OCc2ccc3no[n+]([O-])c3c2)c1	> 100 µM	> 25 µM	42%	100 µM			28%			
[O-][n+]1onc2ccc(/C=N/NC(=S)Nc3ccccc3)cc21		8.3 µM		78 µM						
O=Cc1ccc(OCc2ccc3no[n+]([O-])c3c2)cc1	< 50 µM		6.3%	> 100 µM						
C=CCNC(=S)N/N=C\c1ccccc1OCc1ccc2no[n+]([O-])c2c1	139 µM	23 µM	11%	> 100 µM	138 µM					
O=Cc1cccc(OCc2ccc3no[n+]([O-])c3c2)c1	50 µM	28 µM	43%	100 µM						
CC(=O)c1ccccc1OCc1ccc2no[n+]([O-])c2c1	> 200 µM	7 µM	12%	> 100 µM						
C=CCNC(=S)N/N=C\c1ccccc1OCc1ccc2c(c1)=[N+]([O-])C(C)(C)[N+]=2[O-]		2.7 µM	6.6%	> 100 µM		ND(Insoluble)				

Structure (SMILES)	HC50 at 24 h [1]	IC50 (Trypanosoma cruzi)	inhibition [2]	ID50 [3]	CC50 at 48 h [4]	ID50 [1]	inhibition [5]	inhibition [6]	selectivity ratio [7]	Selectivity Index [8]
NC(=S)N/N=C/c1ccc(OCc2ccc3no[n+]([O-])c3c2)cc1	> 200 µM			43 µM					26.7	> 13.3
C=CCNC(=S)N/N=C/c1ccc(OCc2ccc3c(c2)=[N+]([O-])C(C)(C)[N+]=3[O-])cc1	> 100 µM	23 µM	51%	100 µM						
N=C(N)N/N=C\c1ccccc1OCc1ccc2no[n+]([O-])c2c1	58 µM	> 25 µM	39%	> 100 µM	< 100 µM					
CC1CS(=O)(=O)CCN1/N=C/c1ccc([N+](=O)[O-])o1 (stereo not given) [NIFURTIMOX]	> 100 µM									13
C[C@@H]1[C@H](O)[C@@H](C)/C=C/C=C/C=C/C=C/C=C/C=C/C=C/[C@H](O[C@@H]2O[C@H](C)[C@@H](O)[C@H](N)[C@@H]2O)C[C@@H]2O[C@](O)(C[C@@H](O)C[C@@H](O)[C@H](O)CC[C@@H](O)C[C@@H](O)CC(=O)O[C@H]1C)C[C@H](O)[C@H]2C(=O)O [AMPHOTERICIN B]	1.5 µM									10
CC(=O)c1ccccc1OCc1ccc2c(c1)=[N+]([O-])C(C)(C)[N+]=2[O-]	< 50 µM	> 25 µM	0%	> 100 µM						
C=CCNC(=S)N/N=C/c1ccc(OCc2ccc3no[n+]([O-])c3c2)cc1		> 25 µM	38%	> 100 µM		ND(Insoluble)				
CC1(C)[N+]([O-])=c2ccc(COc3ccc(/C=N/NC(N)=S)cc3)cc2=[N+]1[O-]		17 µM	13.7%	> 100 µM		ND(Insoluble)				
NC(=O)N/N=C/c1ccc(OCc2ccc3no[n+]([O-])c3c2)cc1	> 200 µM			> 100 µM						
NC(=S)N/N=C\c1ccccc1OCc1ccc2no[n+]([O-])c2c1	189 µM	> 25 µM	49%	100 µM	< 100 µM					
N=C(N)N/N=C/c1ccc(OCc2ccc3no[n+]([O-])c3c2)cc1	> 200 µM			32 µM						
[O-][n+]1onc2ccc(COc3ccc(/C=N/NC(=S)Nc4ccccc4)cc3)cc21		7 µM	95%	75 µM		ND(Insoluble)				
NC(=O)N/N=C\c1ccccc1OCc1ccc2no[n+]([O-])c2c1	> 100 µM	> 25 µM	7%	> 100 µM	< 100 µM					
NC(=S)N/N=C/c1cccc(OCc2ccc3no[n+]([O-])c3c2)c1		15 µM	80%	78 µM		ND(Insoluble)				
C=CCNC(=S)N/N=C/c1ccc2c(c1)=[N+]([O-])C(C)(C)[N+]=2[O-]		7.2 µM								
O=Cc1ccccc1OCc1ccc2no[n+]([O-])c2c1	> 100 µM	6.3 µM	0%	> 100 µM	78 µM				12.4	> 15.9
CC1(C)[N+]([O-])=c2ccc(COc3ccccc3/C=N\NC(N)=O)cc2=[N+]1[O-]	50 µM	4.7 µM	0%	> 100 µM						
CC1(C)[N+]([O-])=c2ccc(COc3ccc(C=O)cc3)cc2=[N+]1[O-]	65 µM	17 µM	35.5%	> 100 µM	< 100 µM					
